Laboratory results from patent US12383692B2, “Systems and methods for synthesis of nitric oxide” (The General Hospital Corporation, priority 2014, dated 2025).

Legend:
Type in all cases: in vivo
[1] = system: anesthetized lamb with acute pulmonary hypertension due to U46619 infusion; assay: Continuous NO generation with respiratory system 10 (NO generator 14) in anesthetized lambs with U46619-induced pulmonary hypertension
From the text: (§1) Animal studies were approved by the Institutional Animal Care and Use Committee of Massachusetts General Hospital (Boston, MA). Eight lambs (New England Ovis, Dover, NH) weighing 32±2 kg were studied. General anesthesia was induced with 5% inhaled isoflurane (1-chloro-2,2,2-trifluoroethyldifluromethyl ether, Baxter, Deerfield, IL) in oxygen delivered via a mask and then maintained with 1-4% isoflurane in 50% oxygen during surgery. After tracheal intubation, the lambs were instrumented with indwelling carotid artery pulmonary artery catheters. All hemodynamic measurements were performed in anesthetized lambs ventilated with a mechanical ventilator (model 7200, Puritan Bennett, Pleasanton, CA) at a tidal volume of […] and rate of 12-15 breaths/min.
(§2) To induce pulmonary hypertension, a potent pulmonary vasoconstrictor U46619 (Cayman Chemical, Ann Arbor, MI), the analog of the endoperoxide prostaglandin H2, was infused intravenously at a rate of 0.8-0.9 μg/kg/min to increase pulmonary arterial pressure (PAP) to 30 mmHg. The mean arterial pressure and PAP were continuously monitored using a Gould 6600 amplifier system (Gould Electronics, Inc., Eastlake, OH). Pulmonary capillary wedge pressure, heart rate, and cardiac output were intermittently measured at baseline, during U46619 infusion, and before and after inhalation of NO generated using either the respiratory system 10, the respiratory system 100, or NO delivered and diluted at the same level from a compressed gas cylinder. Cardiac output was assessed by thermal dilution as the average of three measurements after an intravenous bolus injection of 10 mL of ice-cold saline solution. Pulmonary vascular resistance index (PVRI), as well as cardiac index (CI), were calculated using standard formulae. The gas cylinder contained 500 ppm NO diluted in nitrogen.
The respiratory system 10 was tested with an anesthetized lamb as the patient 11. A baseline (BL) was generated then the NO generator 14 of the respiratory system 10 was triggered to continuously spark (i.e., generate NO) after […] was administered for 30 minutes. The NO was pumped at 5 L/min into the inspiratory line 18. The electrodes 36 were fabricated from iridium-platinum. Once triggered, the controller 33 was configured to spark the electrodes 36 for 4 minutes using the following settings: B=35, N=25, P=240 μs; and H=100 μs, which produced approximately 40 ppm of NO, and then the controller 33 stopped the NO generator 14. The test was performed when 21% oxygen was supplied to the inlet 24 of the NO generator 14, when 50% oxygen was supplied to the inlet 24 of the NO generator 14, and compared with NO supplied at the same concentration to the anesthetized lamb from a gas cylinder. […]

[2] = system: anesthetized lamb with acute pulmonary hypertension; assay: Continuous NO generation with respiratory system 100 (NO generator 102) in anesthetized lambs with U46619-induced pulmonary hypertension
From the text: as §1, §2
The respiratory system 100 was tested with an anesthetized lamb as the patient 11. A baseline (BL) was generated then the NO generator 102 of the respiratory system 100 was triggered to continuously spark (i.e., generate NO) after U46619 was administered for 30 minutes. The electrodes 36 were fabricated from iridium-platinum. Once triggered, the controller 33 was configured to spark the electrodes 36 for 4 minutes using the following settings: B=35, N=25, P=240 μs; and H=100 μs, which produced approximately 40 ppm of NO, and then the controller 33 stopped the NO generator 102. The test was performed when 21% oxygen was supplied in the inspiratory line 18, when 50% oxygen was supplied in the inspiratory line 18, and when NO was supplied to the anesthetized lamb diluted from a compressed gas cylinder.
Also, the reduction in PAP and PVRI for the NO produced by the NO generator 102 was similar to the reduction in PAP and PVRI for the NO supplied by the gas cylinder. […]

[3] = system: anesthetized lamb with acute pulmonary hypertension; assay: Intermittent NO generation with respiratory system 100 (NO generator 102) in anesthetized lambs with U46619-induced pulmonary hypertension; conditions: 4 minutes
From the text: as §1, §2
The respiratory system 100 was tested with an anesthetized lamb as the patient 11. A baseline (BL) was generated then the NO generator 102 of the respiratory system 100 was triggered to intermittently spark (i.e., generate NO) after U46619 was administered for 30 minutes. The electrodes 36 were fabricated from iridium-platinum. The controller 33 was configured to spark the electrodes 36 only during the first 0.8 seconds of inspiration for 4 minutes using the following settings: B=35, N=25, P=240 μs; and H=100 μs and then the controller 33 stopped the NO generator 102, The test was performed when 21% oxygen was supplied in the inspiratory line 18, when 50% oxygen was supplied in the inspiratory line 18, and when NO was supplied to the anesthetized lamb from a gas cylinder.
Also, the reduction in PAP and PVRI for the NO produced by the NO generator 102 was similar to the reduction in PAP and PVRI for NO supplied and diluted from the compressed gas cylinder. […]

[4] = NO produced by NO generator 14, continuous sparking, 4 minutes
[5] = inhaled NO approximately 40 ppm continuously produced by NO generator 14 for 4 minutes, breathing 21% and 50% oxygen
[6] = NO produced by NO generator 102, continuous sparking, 4 minutes
[7] = inhaled NO approximately 40 ppm continuously produced inline by NO generator 102 for 4 minutes, breathing 21% and 50% oxygen
[8] = NO produced by NO generator 102, intermittent sparking
[9] = NO produced by NO generator 102 only during first 0.8 seconds of inspiration, breathing 21% and 50% oxygen

## [N]=O [NO, nitric oxide]
[1]; [4]
  reduction in PAP compared with NO supplied at the same level by dilution from the gas cylinder: similar
  reduction in PVRI compared with NO supplied at the same level by dilution from the gas cylinder: similar
[1]; [5]
  mean pulmonary artery pressure (PAP): rapidly reduced
  pulmonary vascular resistance index (PVRI): rapidly reduced
[2]; [6]
  reduction in PAP compared with NO supplied by the gas cylinder: similar
  reduction in PVRI compared with NO supplied by the gas cylinder: similar
[2]; [7]
  mean pulmonary artery pressure (PAP): rapidly reduced
  pulmonary vascular resistance index (PVRI): rapidly reduced
[3]; [8]
  reduction in PAP compared with NO supplied and diluted from the compressed gas cylinder: similar
  reduction in PVRI compared with NO supplied and diluted from the compressed gas cylinder: similar
[3]; [9]
  mean pulmonary artery pressure (PAP): rapidly reduced
  pulmonary vascular resistance index (PVRI): rapidly reduced
